Source: PubChem BioAssay (NCI)
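Following 48 hours of exposure in 96-well plates, responses at five concentrations were used to interpolate endpoints linearly. The concentration for 50% growth inhibition is given as GI50. TGI marks complete inhibition of growth.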

Tests used:
Assay in all cases: NCI tumour cell line growth inhibition, 48 h
SK-MEL-5 melanoma = tested on: SK-MEL-5 melanoma
MALME-3M melanoma = tested on: MALME-3M melanoma
A498 renal = tested on: A498 renal
OVCAR-8 ovarian = tested on: OVCAR-8 ovarian
OVCAR-4 ovarian = tested on: OVCAR-4 ovarian
CAKI-1 renal = tested on: CAKI-1 renal
SR leukemia = tested on: SR leukemia
SK-MEL-28 melanoma = tested on: SK-MEL-28 melanoma
HCT-116 colon = tested on: HCT-116 colon
HOP-62 NSCLC = tested on: HOP-62 NSCLC
MDA-MB-231 breast = tested on: MDA-MB-231 breast
SNB-75 CNS = tested on: SNB-75 CNS
M14 melanoma = tested on: M14 melanoma
A549 NSCLC = tested on: A549 NSCLC
SF-268 CNS = tested on: SF-268 CNS
SF-295 CNS = tested on: SF-295 CNS
HCT-15 colon = tested on: HCT-15 colon
SN12C renal = tested on: SN12C renal
NCI-H226 lung = tested on: NCI-H226 lung
K-562 leukemia = tested on: K-562 leukemia
DU-145 prostate = tested on: DU-145 prostate
HS 578T breast = tested on: HS 578T breast
T-47D breast = tested on: T-47D breast
RPMI-8226 leukemia = tested on: RPMI-8226 leukemia
HT29 colon = tested on: HT29 colon
PC-3 prostate = tested on: PC-3 prostate
BT-549 breast = tested on: BT-549 breast
SF-539 CNS = tested on: SF-539 CNS
SK-MEL-2 melanoma = tested on: SK-MEL-2 melanoma
EKVX NSCLC = tested on: EKVX NSCLC
MCF7 breast = tested on: MCF7 breast
HL-60(TB) leukemia = tested on: HL-60(TB) leukemia
IGROV1 ovarian = tested on: IGROV1 ovarian
SW-620 colon = tested on: SW-620 colon
UO-31 renal = tested on: UO-31 renal
KM12 colon = tested on: KM12 colon
U251 CNS = tested on: U251 CNS
786-0 renal = tested on: 786-0 renal
RXF 393 renal = tested on: RXF 393 renal
HOP-92 NSCLC = tested on: HOP-92 NSCLC
CCRF-CEM leukemia = tested on: CCRF-CEM leukemia
LOX IMVI melanoma = tested on: LOX IMVI melanoma
SK-OV-3 ovarian = tested on: SK-OV-3 ovarian
UACC-257 melanoma = tested on: UACC-257 melanoma
TK-10 renal = tested on: TK-10 renal
UACC-62 melanoma = tested on: UACC-62 melanoma
NCI-H460 lung = tested on: NCI-H460 lung
SNB-19 CNS = tested on: SNB-19 CNS
ACHN renal = tested on: ACHN renal
OVCAR-3 ovarian = tested on: OVCAR-3 ovarian
NCI-H23 lung = tested on: NCI-H23 lung
HCC-2998 colon = tested on: HCC-2998 colon
NCI-H522 lung = tested on: NCI-H522 lung
MOLT-4 leukemia = tested on: MOLT-4 leukemia
NCI/ADR-RES ovarian = tested on: NCI/ADR-RES ovarian
OVCAR-5 ovarian = tested on: OVCAR-5 ovarian

Question: For `O=C(N/N=C/c1ccc(Br)s1)c1[nH]c2ccc(Br)cc2c1-c1ccccc1`, which GI50 (SK-MEL-5 melanoma) is on record?
Answer: 0.675 µM

Question: What about the TGI (SK-MEL-5 melanoma) of the same compound?
Answer: 1.52 µM

Question: What about the GI50 (MALME-3M melanoma) of the same compound?
Answer: 1.31 µM

Question: What about the TGI (MALME-3M melanoma) of the same compound?
Answer: > 68.1 µM

Question: What about the GI50 (A498 renal) of the same compound?
Answer: 35.2 µM

Question: And the TGI (A498 renal)?
Answer: > 84.1 µM

Question: And the GI50 (OVCAR-8 ovarian)?
Answer: 0.296 µM

Question: What about the TGI (OVCAR-8 ovarian) of the same compound?
Answer: 1.82 µM

Question: And the GI50 (OVCAR-4 ovarian)?
Answer: 1.21 µM

Question: And the TGI (OVCAR-4 ovarian)?
Answer: > 53 µM

Question: What about the GI50 (CAKI-1 renal) of the same compound?
Answer: 1.24 µM

Question: And the TGI (CAKI-1 renal)?
Answer: > 39 µM

Question: What about the GI50 (SR leukemia) of the same compound?
Answer: 0.27 µM

Question: And the TGI (SR leukemia)?
Answer: > 50.1 µM

Question: What about the GI50 (SK-MEL-28 melanoma) of the same compound?
Answer: 1.72 µM

Question: And the TGI (SK-MEL-28 melanoma)?
Answer: > 88 µM

Question: And the GI50 (HCT-116 colon)?
Answer: 0.282 µM

Question: And the TGI (HCT-116 colon)?
Answer: > 100 µM

Question: What about the GI50 (HOP-62 NSCLC) of the same compound?
Answer: 1.29 µM

Question: And the TGI (HOP-62 NSCLC)?
Answer: > 66.9 µM

Question: And the GI50 (MDA-MB-231 breast)?
Answer: 2.31 µM

Question: What about the TGI (MDA-MB-231 breast) of the same compound?
Answer: > 100 µM

Question: And the GI50 (SNB-75 CNS)?
Answer: 0.843 µM

Question: What about the TGI (SNB-75 CNS) of the same compound?
Answer: 7.95 µM

Question: And the GI50 (M14 melanoma)?
Answer: 1.03 µM

Question: What about the TGI (M14 melanoma) of the same compound?
Answer: > 100 µM

Question: What about the GI50 (A549 NSCLC) of the same compound?
Answer: 1.01 µM

Question: And the TGI (A549 NSCLC)?
Answer: > 44 µM

Question: And the GI50 (SF-268 CNS)?
Answer: 1.61 µM

Question: What about the TGI (SF-268 CNS) of the same compound?
Answer: > 100 µM

Question: What about the GI50 (SF-295 CNS) of the same compound?
Answer: 0.907 µM

Question: And the TGI (SF-295 CNS)?
Answer: 11 µM

Question: And the GI50 (HCT-15 colon)?
Answer: 0.934 µM

Question: And the TGI (HCT-15 colon)?
Answer: > 36.2 µM

Question: What about the GI50 (SN12C renal) of the same compound?
Answer: 0.547 µM

Question: And the TGI (SN12C renal)?
Answer: > 38.2 µM

Question: What about the GI50 (NCI-H226 lung) of the same compound?
Answer: 0.826 µM

Question: And the TGI (NCI-H226 lung)?
Answer: > 37 µM

Question: What about the GI50 (K-562 leukemia) of the same compound?
Answer: 0.327 µM

Question: And the TGI (K-562 leukemia)?
Answer: > 100 µM

Question: What about the GI50 (DU-145 prostate) of the same compound?
Answer: 0.7 µM

Question: And the TGI (DU-145 prostate)?
Answer: > 59.8 µM

Question: What about the GI50 (HS 578T breast) of the same compound?
Answer: 0.791 µM

Question: And the TGI (HS 578T breast)?
Answer: 41.9 µM

Question: And the GI50 (T-47D breast)?
Answer: 7.05 µM

Question: What about the TGI (T-47D breast) of the same compound?
Answer: > 100 µM

Question: What about the GI50 (RPMI-8226 leukemia) of the same compound?
Answer: 0.377 µM

Question: And the TGI (RPMI-8226 leukemia)?
Answer: > 62.5 µM

Question: What about the GI50 (HT29 colon) of the same compound?
Answer: 0.311 µM

Question: What about the TGI (HT29 colon) of the same compound?
Answer: > 35.8 µM

Question: And the GI50 (PC-3 prostate)?
Answer: 0.386 µM

Question: And the TGI (PC-3 prostate)?
Answer: > 52.3 µM

Question: And the GI50 (BT-549 breast)?
Answer: 0.738 µM

Question: What about the TGI (BT-549 breast) of the same compound?
Answer: 2.16 µM

Question: What about the GI50 (SF-539 CNS) of the same compound?
Answer: 0.292 µM

Question: And the TGI (SF-539 CNS)?
Answer: 1.15 µM

Question: What about the GI50 (SK-MEL-2 melanoma) of the same compound?
Answer: 0.71 µM

Question: And the TGI (SK-MEL-2 melanoma)?
Answer: > 50.4 µM

Question: What about the GI50 (EKVX NSCLC) of the same compound?
Answer: 4.92 µM

Question: And the TGI (EKVX NSCLC)?
Answer: > 100 µM

Question: And the GI50 (MCF7 breast)?
Answer: 0.852 µM

Question: What about the TGI (MCF7 breast) of the same compound?
Answer: > 34.5 µM

Question: And the GI50 (HL-60(TB) leukemia)?
Answer: < 0.0484 µM

Question: What about the TGI (HL-60(TB) leukemia) of the same compound?
Answer: 0.387 µM

Question: And the GI50 (IGROV1 ovarian)?
Answer: 0.983 µM

Question: And the TGI (IGROV1 ovarian)?
Answer: > 39.1 µM

Question: And the GI50 (SW-620 colon)?
Answer: 0.418 µM

Question: And the TGI (SW-620 colon)?
Answer: > 100 µM

Question: What about the GI50 (UO-31 renal) of the same compound?
Answer: 1.4 µM

Question: What about the TGI (UO-31 renal) of the same compound?
Answer: > 100 µM

Question: What about the GI50 (KM12 colon) of the same compound?
Answer: 1.18 µM

Question: What about the TGI (KM12 colon) of the same compound?
Answer: > 79.6 µM

Question: What about the GI50 (U251 CNS) of the same compound?
Answer: 0.989 µM

Question: What about the TGI (U251 CNS) of the same compound?
Answer: > 39.9 µM

Question: And the GI50 (786-0 renal)?
Answer: 1.26 µM

Question: What about the TGI (786-0 renal) of the same compound?
Answer: > 100 µM

Question: And the GI50 (RXF 393 renal)?
Answer: 1.27 µM

Question: What about the TGI (RXF 393 renal) of the same compound?
Answer: 37.3 µM

Question: And the GI50 (HOP-92 NSCLC)?
Answer: 0.462 µM

Question: And the TGI (HOP-92 NSCLC)?
Answer: > 69.1 µM

Question: And the GI50 (CCRF-CEM leukemia)?
Answer: 0.37 µM

Question: And the TGI (CCRF-CEM leukemia)?
Answer: > 100 µM

Question: And the GI50 (LOX IMVI melanoma)?
Answer: 0.312 µM

Question: What about the TGI (LOX IMVI melanoma) of the same compound?
Answer: 1.35 µM

Question: What about the GI50 (SK-OV-3 ovarian) of the same compound?
Answer: 4.07 µM

Question: And the TGI (SK-OV-3 ovarian)?
Answer: > 100 µM

Question: And the GI50 (UACC-257 melanoma)?
Answer: 1.06 µM

Question: What about the TGI (UACC-257 melanoma) of the same compound?
Answer: > 88.3 µM

Question: And the GI50 (TK-10 renal)?
Answer: 8.83 µM

Question: What about the TGI (TK-10 renal) of the same compound?
Answer: > 82.8 µM

Question: And the GI50 (UACC-62 melanoma)?
Answer: 1.03 µM

Question: What about the TGI (UACC-62 melanoma) of the same compound?
Answer: > 46.1 µM

Question: And the GI50 (NCI-H460 lung)?
Answer: 0.762 µM

Question: And the TGI (NCI-H460 lung)?
Answer: 8.09 µM

Question: And the GI50 (SNB-19 CNS)?
Answer: 1.07 µM

Question: What about the TGI (SNB-19 CNS) of the same compound?
Answer: > 95.7 µM

Question: What about the GI50 (ACHN renal) of the same compound?
Answer: 0.903 µM

Question: And the TGI (ACHN renal)?
Answer: > 45.5 µM

Question: And the GI50 (OVCAR-3 ovarian)?
Answer: 0.638 µM

Question: And the TGI (OVCAR-3 ovarian)?
Answer: 38.4 µM

Question: What about the GI50 (NCI-H23 lung) of the same compound?
Answer: 0.895 µM

Question: What about the TGI (NCI-H23 lung) of the same compound?
Answer: > 51.7 µM

Question: What about the GI50 (HCC-2998 colon) of the same compound?
Answer: 1.04 µM

Question: And the TGI (HCC-2998 colon)?
Answer: > 47.4 µM

Question: And the GI50 (NCI-H522 lung)?
Answer: 0.0898 µM

Question: And the TGI (NCI-H522 lung)?
Answer: 0.344 µM

Question: And the GI50 (MOLT-4 leukemia)?
Answer: 0.203 µM

Question: And the TGI (MOLT-4 leukemia)?
Answer: 38.9 µM

Question: And the GI50 (NCI/ADR-RES ovarian)?
Answer: 0.131 µM

Question: And the TGI (NCI/ADR-RES ovarian)?
Answer: 7.11 µM

Question: What about the GI50 (OVCAR-5 ovarian) of the same compound?
Answer: 0.863 µM

Question: What about the TGI (OVCAR-5 ovarian) of the same compound?
Answer: > 86.1 µM
